Assays:
Type in all cases: cell-based, human
HFSC cells [1] = assay: Expansion of HFSC cells with growth factors and supplements (live cell count); details: for effect on expansion rate: either 50 μM 1-thioglycerol added or PDGF-AA increased to 100 ng/ml (not both), with 10 ng/ml bFGF+10 ng/ml IGF-1, passage 5; for concentration at which expansion rate / response is saturated: established cell line #2b; for effect on cell status (vacuoles, cell number): supplement to DMEM/F12 with glutamine, pyruvate, B27, 1% NEAA, 1 mM N-acetyl-cysteine, 55 μM β-mercaptoethanol, data not shown
Description: FIG. 4 illustrates the expansion rate of HFSC cells (cell line #2b) in the presence of different combinations of growth factors: (1): 20 ng/ml PDGF-AA+10 ng/ml bFGF; (2): 20 ng/ml PDGF-AA+10 ng/ml bFGF+5 ng/ml NT-3; (3): 20 ng/ml PDGF-AA+10 ng/ml bFGF+10 ng/ml IGF-1; (4): 20 ng/ml PDGF-AA+10 ng/ml bFGF+5 ng/ml NT-3+10 ng/ml IGF-1. The cells were harvested at day 11 of passage 3 (P3D11) and number of live cells in each condition was counted. Then, they were passaged in the same condition that was used at passage 3 at the same cell density. The cells were harvested at day 8 of passage 4 (P4D8) and number of live cells in each condition was counted (these cells were harvested before they became sub-confluent because they started forming spheres). […] Condition (3) was effective at both passages. FIG. 5 illustrates the effects of high dose of PDGF-AA (100 ng/ml) and 1-thioglycerol on the proliferation of HFSC cells (cell line #2b); cultured in HFSCM1 medium in the presence of the following combinations of growth factors: (1): 20 ng/ml PDGF-AA+10 ng/ml bFGF+10 ng/ml IGF-1; (2): 20 ng/ml PDGF-AA+10 ng/ml bFGF+10 ng/ml IGF-1+50 μM 1-thioglycerol; (3): 100 ng/ml PDGF-AA+10 ng/ml bFGF+10 ng/ml IGF-1; (4): 100 ng/ml PDGF-AA+10 ng/ml bFGF+10 ng/ml IGF-1+50 μM 1-thioglycerol; (5): 100 ng/ml PDGF-AA+10 ng/ml bFGF+50 μM 1-thioglycerol. The cells were harvested at day 7 of passage 5 (these cells were harvested before they became sub-confluent because they started forming spheres as they did at passage 4) and number of live cells in each condition was counted. The combination of 20 ng/ml PDGF-AA+10 ng/ml bFGF was also tested, but the recovered cell number was too low to evaluate (less than 1×10^4 cells which was under the countable range) and its data was eliminated from this figure. The condition (1) could expand cells at passage 3 but couldn't expand cells at passage 5. […] When the addition of 50 μM 1-thioglycerol and the increase of PDGF-AA concentration to 100 ng/ml were combined [condition (4)], the cell expansion rate improved dramatically and the cells could be expanded successfully. […] The cell “expansion rate” refers to the cell number on a particular date divided by the initial cell number at the start of culture. Human 15-week fetal spinal cord was dissected from the spinal column, with the meninges and peripheral nerves removed. The tissue then was dissociated with Accutase and washed and cells obtained from human fetal spinal cord were placed in a culture vessel containing the following growth medium: DMEM/F12 containing 2.5 mM glutamine and 15 mM HEPES, 2% B27 supplement (Invitrogen™), 1% NEAA, 1.5 mM pyruvate (Invitrogen™), 55 μM β-mercaptoethanol (Invitrogen™), 1 mM N-acetyl-L-cysteine (Sigma-Aldrich™), 20 ng/ml PDGF-AA (R&D SYSTEMS™, Inc., Minneapolis, Minn., USA) and 10 ng/ml bFGF (R&D SYSTEMS™). Cells were then placed in an incubator maintained at 37° C., 5% O2, and 5% CO2. bFGF (10 ng/ml) was added daily to the culture medium. Medium was changed every 2-3 days during passage. Based on the preliminary experiments, growing cells were not so many in the presence of PDGF-AA and bFGF and many cells stopped proliferating or died within a few weeks. […] To remove cells that are not responsive to PDGF-AA and bFGF, cells were cultured in an ultra-low adhesion culture plate ([…] Inc., Corning, N.Y., USA). […] Spheres were collected at lower speed of centrifugation (300 rpm for collecting spheres vs. 1,000 rpm for collecting single cells) for medium change and passaging. After 9 days, cells were harvested and passaged onto poly-ornithine-coated culture vessels. After this period, cells were passaged every 7-14 days. […] In addition, the cells began to appear unhealthy, forming vacuoles in their cytoplasm. As mentioned in Example 1, inclusion of PDGF-AA and bFGF in the culture medium supported adequate growth of the HFSC cells initially, but the proliferation rate slowed after 2 passages. […]

HFSC cells [2] = assay: Differentiation of HFSC cells in serum-free medium (GD3/O4 staining, morphology)
Description: FIG. 7 depicts spontaneous differentiation of HFSC cells in serum-free medium in slides A-F. Slides A and B are phase contrast images taken with an inverted microscope showing the morphological change of HFSC cells (cell line #2b) at passage 12, day 9 (FIG. 7, slides A & B) after being cultured in HFSCM1 medium supplemented with 20 ng/ml PDGF-AA, 10 ng/ml bFGF, 10 ng/ml IGF-1 and 50 μM 1-thioglycerol (FIG. 7, slide A) or without 1-thioglycerol (FIG. 7, slide B). HFSC cells were differentiated spontaneously without replenishing bFGF between changing medium. Even in the same condition, HFSC cells didn't differentiate if bFGF was replenished everyday and seemed to grow slowly. […] The ratio of oligodendrocyte progenitor cells and other cell types to differentiated cells (oligodendrocyte progenitor cells plus other cell types) were calculated and shown in FIG. 15, slide E. Oligodendrocyte progenitor cell was 99.1%±0.56% of differentiated cells whereas other cell types were 0.9%±0.56% of differentiated cells. […]

HFSC cells [3] = assay: Expansion of HFSC cells with growth factors and supplements (live cell count); details: higher concentration of IGF-1 (50-500 ng/ml)

## platelet derived growth factor-AA [PDGF-AA]
HFSC cells [1]
  effect on expansion rate: very little positive effect
  concentration at which expansion rate / response is saturated: 10 to 20 ng/mL
HFSC cells [2]; 40 ng/ml or higher PDGF-AA
  effect on spontaneous differentiation: blocked to differentiate

## basic fibroblast growth factor [bFGF]
HFSC cells [1]
  concentration at which expansion rate / response is saturated: 20 ng/mL

## Nc1ncnc2c1nc(Sc1ccc(Cl)cc1)n2[C@@H]1O[C@@H]2COP(=O)(O)O[C@H]2[C@H]1O [pCPT-cAMP, reference compound]
HFSC cells [2]; 100 μM, high density (3×10^4 cells/cm^2)
  induction of differentiation: could induce differentiation

## OCC(O)CS (stereo not shown) [1-thioglycerol, reference compound]
HFSC cells [1]
  effect on expansion rate: very little positive effect

## OCCS [β-mercaptoethanol, reference compound]
HFSC cells [1]
  effect on cell status (vacuoles, cell number): seemed to improve the cells' status

## CC(=O)N[C@@H](CS)C(=O)O [N-acetyl-cysteine, reference compound]
HFSC cells [1]
  effect on cell status (vacuoles, cell number): seemed to improve the cells' status

## insulin-like growth factor-1 [IGF-1]
HFSC cells [3]
  differentiated cells seen: around 1%
HFSC cells [1]
  concentration at which expansion rate / response is saturated: 40 ng/mL

Source: patent US8993320B2, “Culture method to obtain and maintain a pure or enriched population of mammalian neural stem cells and/or neural/progenitor cells that are prone to differentiate into oligodendrocyte-lineage cells in vitro” (priority 2011, dated 2015)
